Drawing on PMC8955265, “Systematic Discovery of FBXW7-Binding Phosphodegrons Highlights Mitogen-Activated Protein Kinases as Important Regulators of Intracellular Protein Levels” (International Journal of Molecular Sciences, 2022), this text covers Outcome for 38 sequences.

The test system of the assay is FBXW7. Put plainly: Ratiometric EGFP/DsRed protein degradation assay with degron probes. In kind it is cell-based, human. The conditions noted are these: putative degron motif in EGFP-fused probe with AAKG2 MAPK docking motif; HEK293T, 48 h after transfection, EGFP/DsRed ratio with and without FBXW7 plasmid; search cycles 1-4. From the text:
In order to be able to test putative phosphodegron motifs, a ratiometric protein level monitoring method was adapted to monitor MAPK controlled FBXW7 mediated protein degradation. Briefly, intact DsRed and an EGFP-chimera were expressed in HEK293T cells in equal amounts from an expression plasmid, giving an EGFP/DsRed fluorescence ratio close to one under non-degrading conditions. EGFP was fused to a probe comprised of a putative degron sequence and a known MAPK binding docking motif. EGFP signal is expected to diminish faster than DsRed in cells with more FBXW7 if the probe responded to degradation.
We started out from an intentionally general consensus motif of FBXW7 degrons, inspired by the liberal [TS]P..[TS]P pattern defined for yeast Cdc4 substrates, and scanned the human disordered part of the proteome using SliMSearch4 (the disorder score cut-off was 0.4 and flank length was 5). In all, 22 motifs from this list were subjectively chosen and tested in the ratiometric degradation assay giving only 5 positives (see Supplementary Table S1). Based on the results of this first round, by taking information both from the identified positives and negatives, the consensus motif definition was narrowed to requiring a proline at P + 2, but motifs were allowed to have a phospho-mimicking residue (D or E) at P + 4 because it had been formerly reported that this second phosphorylatable residue may be replaced by aspartate or glutamate. […] In the third round, hydrophobic amino acids were more strictly required at positions −1/−2 and P − 1/2/3 positions were further narrowed and P + 4 position was relaxed based on the identified negatives, which gave a higher hit rate (4 out of 6). This third round gave functional motifs at a good rate, but the used motif definition was very restrictive compared to other known motifs. Finally, in the fourth round, we gave up using an optimal consensus and established the positional relaxation model. […] Hits on this final, most predictive list are presented in Supplementary Table S2. All entries were filtered for motif locations by UniProt annotations, discarding all enzyme-inaccessible (e.g., extracellular) instances. Motifs that had any overlapping PFAM domain indicated were manually assessed using the AlphaFold EBI website. Out of these, only motifs that were highly accessible and located outside of confidently predicted folded domains were kept. We also added kinase consensus compatibility to every motif and the number of experiments where phosphorylation could be detected from PhosphoSitePlus.
The chimera degron module was ordered from IDT as gene Block (gBlock). It consisted of a coiled coil dimerization motif (GCN4: EELLSKNYHLENEVARLKK) to increase sensitivity by allowing multivalent binding, a MAPK binding docking motif (AAKG2: KKNASQKRRSLRVHIPDL), and the CycECO degron motif. The motifs were separated by Gly-Ser-Asn linkers and the gBlock was designed so that the motifs could be easily changed by using unique sets of restriction endonucleases. The gBlock was sub-cloned into the Gateway pENTR4 entry plasmid (Thermo Fisher, Waltham, MA, USA) using restriction enzymes (SalI and NotI). The pENTR4-chimera and the destination plasmid (MSCV-CMV-DsRed-IRES-EGFP-DEST from Addgene; 41941), [28]) were subjected to gateway cloning using LR clonase II enzyme (Invitrogen) to obtain the first DsRed-EGFP-chimera DNA construct containing the cycECO degron. Oligonucleotides corresponding to different degron sequences and docking motifs were ligated into the DsRed-EGFP-chimera DNA construct. The list of all the oligonucleotides used for cloning is provided in Supplementary Table S3. pcDNA3-FLAG-FBXW7α was a kind gift from Michael Pagano (New York University). The FBXW7 arginine mutant (Arg mutant: R465C; R479Q; R505L) was created using two-step PCR and cloned into the pcDNA3-FLAG plasmid. […]
For the sequence “PPLQVPPSPPASPPMSPS [PRR36, putative FBXW7 degron motif tested as EGFP-fused degradation probe]”, the Outcome entry was “Positive (tested positive, where +FBXW7/control protein level ratio was lower than 1)”. With “AIRQSPSPPPEESRG [PDE4A, putative FBXW7 degron motif tested as EGFP-fused degradation probe]” the entry was “Negative”; with “PLGPPATPPGSPPCSLL [PKMYT1, putative FBXW7 degron motif tested as EGFP-fused degradation probe]”, “Negative”; with “SPFHGSSPPQSTPLSPPPLTPK [DOCK5, putative FBXW7 degron motif tested as EGFP-fused degradation probe]”, “Negative”. With “QGYLSPESSPPASPVPACS [CREB5, putative FBXW7 degron motif tested as EGFP-fused degradation probe]” the entry was “Negative”; with “SRNHSPSPPVTPTGAA [NHSL1, putative FBXW7 degron motif tested as EGFP-fused degradation probe]”, “Negative”.

As to “FSYQESPPRSPRRMSFSG [AAKG2, putative FBXW7 degron motif tested as EGFP-fused degradation probe]”, the Outcome result was “Negative”. As for “AVRTPPRTPNIV [KSR2-a, putative FBXW7 degron motif tested as EGFP-fused degradation probe]”, the Outcome entry is given as “Negative”.

On to “SAVQTPPSPPVSPRVLS [PCARE, putative FBXW7 degron motif tested as EGFP-fused degradation probe]”, for which the Outcome entry was “Negative”. With “VKRTLPSPPPEEAHLP [BSN, putative FBXW7 degron motif tested as EGFP-fused degradation probe]” the entry was “Negative”.

On to “GEAAGSPVPTPPRSPAQEE [Bcl2L12, putative FBXW7 degron motif tested as EGFP-fused degradation probe]”, for which the Outcome result is “Negative”. Under “EQPSHTPPQTPTPPSTPPLGKQ [ARHGAP17, putative FBXW7 degron motif tested as EGFP-fused degradation probe]” stands “Negative”; under “DRNVIPDTPPSTPLVPSR [AKAP11-1st, putative FBXW7 degron motif tested as EGFP-fused degradation probe]”, “Positive (tested positive, where +FBXW7/control protein level ratio was lower than 1)”. With “TANLPPSPPPSPASEQT [MAP2, putative FBXW7 degron motif tested as EGFP-fused degradation probe]” the entry was “Positive (tested positive, where +FBXW7/control protein level ratio was lower than 1)”. “KMSQPGSPSPKTPTPSTPGDTQ [CHD4, putative FBXW7 degron motif tested as EGFP-fused degradation probe]”: the Outcome result is recorded as “Negative”. Under “TEPRSSPSPPPSPTEPE [CUX2, putative FBXW7 degron motif tested as EGFP-fused degradation probe]” stands “Negative”; under “PPEESPLSPPPEASRLS [KMT2D-b, putative FBXW7 degron motif tested as EGFP-fused degradation probe]”, “Negative”; under “MVQRLGLISPPASQVSTA [GLIS3, putative FBXW7 degron motif tested as EGFP-fused degradation probe]”, “Negative”. With “AHELPLTPPADPSYPY [SP5, putative FBXW7 degron motif tested as EGFP-fused degradation probe]” the entry was “Positive (tested positive, where +FBXW7/control protein level ratio was lower than 1)”; with “PSTTVGSHSPPETPVLTR [ZMYND1 or 8, putative FBXW7 degron motif tested as EGFP-fused degradation probe]”, “Negative”; with “ASPTPPSPPPPPSPPASPSLPP [PP1R37, putative FBXW7 degron motif tested as EGFP-fused degradation probe]”, “Negative”. With “QGQKVGSLTPPSSPKTQRA [AAK1, putative FBXW7 degron motif tested as EGFP-fused degradation probe]” the entry was “Negative”. For “STKRKPRVSPPASPTLEVE [SH3RF1, putative FBXW7 degron motif tested as EGFP-fused degradation probe]”, the Outcome result was “Negative”. Under “GGHLESPARSLPQRP [FAAP20, putative FBXW7 degron motif tested as EGFP-fused degradation probe]” stands “Negative”.

On to “GQAATPETPQPSPPGGSGS [HNF4, putative FBXW7 degron motif tested as EGFP-fused degradation probe]”, for which the Outcome result is on record as “Negative”. Under “PSFPPTPPTPPASPPHTPV [EIF4G3, putative FBXW7 degron motif tested as EGFP-fused degradation probe]” stands “Positive (tested positive, where +FBXW7/control protein level ratio was lower than 1)”; under “ELDLMPYTPPQSTPKSA [PBRM1, putative FBXW7 degron motif tested as EGFP-fused degradation probe]”, “Negative”. Consider “GEGDRGVSPPPSPFFSAI [FRY, putative FBXW7 degron motif tested as EGFP-fused degradation probe]”, for which the Outcome result is reported as “Negative”. Regarding “QQAPLTPPNTPDPRSPPNPDNIA [Myozenin2, putative FBXW7 degron motif tested as EGFP-fused degradation probe]”, the Outcome result is reported as “Positive (tested positive, where +FBXW7/control protein level ratio was lower than 1)”. With “TTVTPPGTPPMR [KSR2-b, putative FBXW7 degron motif tested as EGFP-fused degradation probe]” the entry was “Negative”. With “NYGARPPPTPPASPPPSV [KMT2E, putative FBXW7 degron motif tested as EGFP-fused degradation probe]” the entry was “Positive (tested positive, where +FBXW7/control protein level ratio was lower than 1)”; with “AKEFAPATPPSTPHNSSV [AKAP11-2nd, putative FBXW7 degron motif tested as EGFP-fused degradation probe]”, “Negative”; with “KTGEQTPPHEHICLRDELP [JIP1, putative FBXW7 degron motif tested as EGFP-fused degradation probe]”, “Negative”. Under “DLLAALPTPPHNQTEDV [KMT2D-3rd, putative FBXW7 degron motif tested as EGFP-fused degradation probe]” stands “Positive (tested positive, where +FBXW7/control protein level ratio was lower than 1)”; under “IHQAGGSPPASSTSSS [RAPTOR, putative FBXW7 degron motif tested as EGFP-fused degradation probe]”, “Negative”.

Consider “TCPNSPSTPPSTPSPRV [SOS2, putative FBXW7 degron motif tested as EGFP-fused degradation probe]”, for which the Outcome result is given as “Negative”. With “APPIPSPPPSPPPSPAPLEP [CAMTA2, putative FBXW7 degron motif tested as EGFP-fused degradation probe]” the entry was “Positive (tested positive, where +FBXW7/control protein level ratio was lower than 1)”; with “KHSNSPPLVTPPQSPVSPQPPA [SMTL2, putative FBXW7 degron motif tested as EGFP-fused degradation probe]”, “Positive (tested positive, where +FBXW7/control protein level ratio was lower than 1)”.
